Measurements: patent US5314886A, “N-substituted lactams useful as cholecystokinin antagonists” (priority 1992, dated 1994)
Counter-ions that a name gives are not always drawn.

How the values were obtained:
CCK-B = biological target: T1, CCK-B (Cavia porcellus, UniProt H0VZC5); test: Displacement of 125I-CCK-OP binding to guinea pig brain homogenates (CCK-B binding); conditions: guinea pig brain membranes; for IC50: 125I-CCK-OP, read-out: CCK-B binding GP brain membranes: IC50; for inhibition at 10 µM: read-out: CCK-B binding GP brain membranes: percent displacement of 125I-CCK-OP
T1 construct: Rat pancreas or guinea pig brain was homogenized; from tissue; host or cells: guinea pig brain homogenate (membrane pellet)
T1 sequence (H0VZC5 1-426): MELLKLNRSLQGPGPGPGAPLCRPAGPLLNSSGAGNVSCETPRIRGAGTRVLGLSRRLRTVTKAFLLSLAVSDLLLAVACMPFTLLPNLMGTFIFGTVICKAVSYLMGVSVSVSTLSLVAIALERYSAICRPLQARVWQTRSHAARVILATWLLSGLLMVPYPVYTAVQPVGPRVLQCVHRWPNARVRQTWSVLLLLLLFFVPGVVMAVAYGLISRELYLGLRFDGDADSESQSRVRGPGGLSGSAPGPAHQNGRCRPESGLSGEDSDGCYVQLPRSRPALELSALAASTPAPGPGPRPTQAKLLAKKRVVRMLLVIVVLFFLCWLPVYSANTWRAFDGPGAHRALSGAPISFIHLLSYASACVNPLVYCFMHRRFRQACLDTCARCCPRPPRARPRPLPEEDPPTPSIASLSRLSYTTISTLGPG
Procedure: Percent displacement of ^125 I-CCK-OP binding to rat pancreatic membrane and guinea pig brain homogenates by compounds of the instant invention at different concentrations was used to quantify CCK-A and CCK-B receptor binding, respectively.
Binding of 125-CCK-OP to rat pancreas (CCK-A) and guinea pig brain (CCK-B) homogenates.
Rat pancreas or guinea pig brain was homogenized in 50 and 20 volumes, respectively, of 50 mM Tris-HCl buffer (pH 7.8 at 25° C.) with a Brinkmann polytron homogenizer. The homogenates were centrifuged twice at 50,000 x g for 20 min with an intermediate rehomogenization in fresh buffer. The final pellets were resuspended in 20 volumes (brain) or 40 volumes (pancreas) of incubation buffer [50 mM Tris-HCl, 5 mM MgCl2, 0.2% BSA, 5 mM dithiothreitol, 0.14 mg/ml bacitracin, pH 7.9 at 25° C.]. One milliliter of the final homogenate from brain or pancreas was diluted to 50 mL with incubation buffer to use in the binding assay.
Binding experiments were performed in a final volume of 1 mL in 13×100 mm borosilicate disposable culture tubes. To duplicate tubes were added 890 μL of freshly resuspended pancreas or brain homogenate; 73,000 dpm of […] (final concentration, 12 pM) and 10 μL of DMSO containing displacing agents (compounds or reference compounds, at the desired final concentrations). Nonspecific (nonsaturable) binding was determined in the presence of 1 μM unlabeled CCK-OP. After incubation for 30 min at 37° C. the binding was stopped by rapid filtration under a reduced pressure through glass fiber FPD-105 Whatman GF/B filters on Harvester and washed twice with 5 mL of ice-cold Tris buffer (50 mM Tris-HCl, pH 7.8). The radioactivity on the filters was counted in a gama counter. […] Specific binding was defined as the excess binding over that in blanks containing 1 μM unlabeled CCK-OP.
Determination of IC50 for displacing agents

CCK-A = biological target: T2, CCK-A (Rattus norvegicus, UniProt P30551); test: Displacement of 125I-CCK-OP binding to rat pancreatic membranes (CCK-A binding); conditions: for IC50: 125I-CCK-OP; for inhibition at 1 µM: read-out: CCK-A binding rat pancreatic membranes: percent displacement of 125I-CCK-OP
T2 sequence (P30551 1-444): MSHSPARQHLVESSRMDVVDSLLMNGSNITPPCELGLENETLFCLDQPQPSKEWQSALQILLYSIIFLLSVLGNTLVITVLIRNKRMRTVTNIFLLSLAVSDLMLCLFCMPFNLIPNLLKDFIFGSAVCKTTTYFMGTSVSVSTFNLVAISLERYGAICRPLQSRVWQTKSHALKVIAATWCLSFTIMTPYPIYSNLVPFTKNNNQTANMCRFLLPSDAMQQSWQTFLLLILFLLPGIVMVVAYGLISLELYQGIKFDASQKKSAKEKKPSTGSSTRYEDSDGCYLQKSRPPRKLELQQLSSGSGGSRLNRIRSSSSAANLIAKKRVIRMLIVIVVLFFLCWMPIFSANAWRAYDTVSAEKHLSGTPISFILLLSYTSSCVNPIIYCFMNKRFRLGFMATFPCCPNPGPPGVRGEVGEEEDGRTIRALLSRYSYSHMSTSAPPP

| IC50 (CCK-B) [nM] | inhibition at 10 µM (CCK-B) [%] | IC50 (CCK-A) [nM] | inhibition at 1 µM (CCK-A) [%] | SMILES |
| --- | --- | --- | --- | --- |
| > 10000 | – | – | – | O=C(N[C@@H]1C(=O)N(c2ccccc2F)C[C@@H]1C(=O)O)c1cnc2ccccc2c1 (relative stereo) [Example 28, cis-1-(2-fluorophenyl)-5-oxo-4-[(3-quinolinylcarbonyl)amino]5-oxo-3-pyrrolidinecarboxylic acid] |
| – | 45 | 750 | – | O=C(N[C@@H]1C(=O)N(c2ccccc2)C[C@@H]1C(=O)N1CCCC1)c1ccc2ccccc2c1 (relative stereo) [Example 53, cis-1-[[3-[(2-Naphthalenylcarbonyl)amino]-2-oxo-1-phenyl-4-pyrrolidinyl]carbonyl]pyrrolidine] |
| 10000 | – | 100 | – | O=C(Nc1ccc(Cl)c(Cl)c1)N[C@H]1C(=O)N(c2ccccc2)C[C@H]1C(=O)O (relative stereo) [Example 36 (cis), cis-4-[[[(3,4-dichlorophenyl)amino]carbonyl]amino]-5-oxo-1-phenyl-3-pyrrolidinecarboxylic acid] |
| > 10000 | – | > 1000 | – | O=C(N[C@@H]1C(=O)N(c2ccccc2)C[C@H]1C(=O)O)c1ccc(Cl)c(Cl)c1 (relative stereo) [Example 35 (trans), trans-4-[[(3,4-dichlorophenyl)carbonyl]amino]-5-oxo-1-phenyl-3-pyrrolidinecarboxylic acid] |
| – | – | > 1000 | – | CCCCCN1C[C@@H](C(=O)O)[C@H](NC(=O)Nc2ccc(Cl)cc2)C1=O (relative stereo) [47 trans] |
| – | 35 | – | 32 | CC(C)(C)OC(=O)[C@@H]1CN(c2ccccc2)C(=O)[C@@H]1NC(=O)c1ccc2ccccc2c1 (relative stereo) [1,1-Dimethylethyl cis-4-[(2-naphthalenylcarbonyl)amino]-5-oxo-1-phenyl-3-pyrrolidinecarboxylate] |
| – | – | 320 | – | O=C(N[C@@H]1C(=O)N(c2ccccc2)C[C@H]1C(=O)O)c1cc2ccccc2[nH]1 (relative stereo) [Example 30, trans-4-[(1H-Indol-2-ylcarbonyl)amino]-5-oxo-1-phenyl-3-pyrrolidinecarboxylic acid] |
| – | 49 | 300 | – | CCCCCN1C[C@@H](C(=O)O)[C@@H](NC(=O)c2ccc(Cl)c(Cl)c2)C1=O (relative stereo) [Example 32, cis-4-[[(3,4-Dichlorophenyl)carbonyl]amino]-5-oxo-1-pentyl-3-pyrrolidinecarboxylic acid] |
| 10000 | – | – | 27 | O=C(N[C@@H]1C(=O)N(c2ccccc2)C[C@H]1C(=O)N1CCCC1)c1ccc2ccccc2c1 (relative stereo) [Example 55, trans-1-[[3-[(2-Naphthalenylcarbonyl)amino]-2-oxo-1-phenyl-4-pyrrolidinyl]carbonyl]pyrrolidine] |
| > 10000 | – | 1600 | – | O=C(N[C@H]1C(=O)N(c2ccccc2)C[C@H]1C(=O)O)c1ccc(Cl)cc1 (relative stereo) [Example 46 (cis), cis-4-[[(4-Chlorophenyl)carbonyl]amino]-5-oxo-1-phenyl-3-pyrrolidinecarboxylic acid] |
| > 10000 | – | 41000 | – | O=C(N[C@@H]1C(=O)N(c2ccccc2)C[C@H]1C(=O)O)c1ccc(Cl)cc1 (relative stereo) [Example 46 (trans), trans-4-[[(4-Chlorophenyl)carbonyl]amino]-5-oxo-1-phenyl-3-pyrrolidinecarboxylic acid] |
| > 10000 | – | > 1000 | – | O=C(Cc1c[nH]c2ccccc12)N[C@@H]1C(=O)N(c2ccccc2)C[C@H]1C(=O)O (relative stereo) [Example 51, trans-4-[(3-indolylacetyl)amino]-5-oxo-1-phenyl-3-pyrrolidinecarboxylic acid] |
| > 10000 | – | > 1000 | – | CCCCCN1C[C@@H](C(=O)O)[C@@H](NC(=O)c2ccc(Cl)cc2)C1=O (relative stereo) [Example 45] |
| 10000 | – | 2800 | – | CCCCCN1C[C@@H](C(=O)O)[C@@H](NC(=O)Nc2ccc3ccccc3c2)C1=O (relative stereo) [Example 40, cis-4-[[(2-Naphthalenylamino)carbonyl]amino]-5-oxo-1-pentyl-3-pyrrolidinecarboxylic acid] |
| – | 45 | > 1000 | – | O=C(Nc1ccc(Cl)c(Cl)c1)N[C@@H]1C(=O)N(c2ccccc2)C[C@H]1C(=O)O (relative stereo) [Example 36 (trans)] |
| – | – | > 1000 | – | CCCCCN1C[C@H](C(=O)O)[C@H](NC(=O)Nc2ccc(Cl)cc2)C1=O (relative stereo) [47 cis] |
| > 10000 | – | 250 | – | CCCCCN1C[C@@H](C(=O)O)[C@@H](NC(=O)c2cnc3ccccc3c2)C1=O (relative stereo) [Example 27, cis-5-oxo-1-pentyl-4-[(3-quinolinylcarbonyl)amino]-3-pyrrolidinecarboxylic acid, monohydrochloride] |
| 6000 | – | 350 | – | CCCCCN1C[C@@H](C(=O)O)[C@@H](NC(=O)Nc2ccc(Cl)c(Cl)c2)C1=O (relative stereo) [Example 34, cis-4-[[[(3,4-dichlorophenyl)amino]carbonyl]amino]-5-oxo-1-pentyl-3-pyrrolidinecarboxylic acid] |
| – | – | > 10000 | – | CCCCCN1C[C@@H](C(=O)O)[C@H](NC(=O)c2ccc3ccccc3c2)C1=O (relative stereo) [Example 39, trans-4-[(2-Naphthalenylcarbonyl)amino]-5-oxo-1-pentyl-3-pyrrolidinecarboxylic acid] |
